Data on 1 molecule can be found in US8513187B2, “Soft protease inhibitors, and pro-soft forms thereof” (priority 2009, dated 2013).

Series [1] has as its target T1, DPP9 (Homo sapiens, UniProt Q86TI2). Briefly: Intracellular IC50 (IC-IC50), intracellular potency against DPP9. Type of series: cell-based. Particulars: compounds preincubated at pH 2.0 for 4 h.
Description: It is important to note that IC-IC50 is not a measure of cell permeability. Like IC50, it is a composite of factors, including cell permeability, potency against DPP9, rate and equilibrium of the intramolecular cyclization reaction, and inhibitor stability, both intrinsic and intracellular.
The next series concerns the target T2, PREP (Homo sapiens, UniProt P48147).
T2 sequence (P48147 1-710): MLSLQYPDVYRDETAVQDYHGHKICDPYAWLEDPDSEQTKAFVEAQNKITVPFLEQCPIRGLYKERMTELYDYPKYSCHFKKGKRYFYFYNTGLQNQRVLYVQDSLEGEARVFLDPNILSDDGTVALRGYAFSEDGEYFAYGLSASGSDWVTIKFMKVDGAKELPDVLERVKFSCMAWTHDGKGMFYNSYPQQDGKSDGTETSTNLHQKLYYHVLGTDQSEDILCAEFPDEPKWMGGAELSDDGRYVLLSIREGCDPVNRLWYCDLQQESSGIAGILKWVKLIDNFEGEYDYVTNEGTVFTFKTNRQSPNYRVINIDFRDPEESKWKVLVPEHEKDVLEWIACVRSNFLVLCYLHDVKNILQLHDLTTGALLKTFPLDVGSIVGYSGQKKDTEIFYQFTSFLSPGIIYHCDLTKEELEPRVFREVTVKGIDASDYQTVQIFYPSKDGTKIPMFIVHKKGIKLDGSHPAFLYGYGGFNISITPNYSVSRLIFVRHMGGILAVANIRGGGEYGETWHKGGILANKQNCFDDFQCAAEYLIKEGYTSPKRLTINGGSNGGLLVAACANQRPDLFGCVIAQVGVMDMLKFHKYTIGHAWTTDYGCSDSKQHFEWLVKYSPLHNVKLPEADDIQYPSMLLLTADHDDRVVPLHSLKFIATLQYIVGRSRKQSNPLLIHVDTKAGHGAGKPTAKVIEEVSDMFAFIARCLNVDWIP
Description: In vitro PREP inhibition assay. Type of series: biochemical. The procedure:
(§1) FIG. 6 depicts a table outlining various in vitro and in vivo assay results for DPP inhibitors. CLogP values were calculated using ChemDraw Ultra version 11.0. […] The methods of biological testing used are described in International Patent Application PCT/US06/047853, published as WO/2007/100374, which claims priority to U.S. […] These methods are herein incorporated in their entirety by reference. FIGS. 6-9 depict the results from various biological assays. The CLogP values in these figures were calculated using ChemDraw Ultra version 11.0.

The target of a further series is T3, FAP (Homo sapiens, UniProt Q12884).
T3 sequence (Q12884 1-760): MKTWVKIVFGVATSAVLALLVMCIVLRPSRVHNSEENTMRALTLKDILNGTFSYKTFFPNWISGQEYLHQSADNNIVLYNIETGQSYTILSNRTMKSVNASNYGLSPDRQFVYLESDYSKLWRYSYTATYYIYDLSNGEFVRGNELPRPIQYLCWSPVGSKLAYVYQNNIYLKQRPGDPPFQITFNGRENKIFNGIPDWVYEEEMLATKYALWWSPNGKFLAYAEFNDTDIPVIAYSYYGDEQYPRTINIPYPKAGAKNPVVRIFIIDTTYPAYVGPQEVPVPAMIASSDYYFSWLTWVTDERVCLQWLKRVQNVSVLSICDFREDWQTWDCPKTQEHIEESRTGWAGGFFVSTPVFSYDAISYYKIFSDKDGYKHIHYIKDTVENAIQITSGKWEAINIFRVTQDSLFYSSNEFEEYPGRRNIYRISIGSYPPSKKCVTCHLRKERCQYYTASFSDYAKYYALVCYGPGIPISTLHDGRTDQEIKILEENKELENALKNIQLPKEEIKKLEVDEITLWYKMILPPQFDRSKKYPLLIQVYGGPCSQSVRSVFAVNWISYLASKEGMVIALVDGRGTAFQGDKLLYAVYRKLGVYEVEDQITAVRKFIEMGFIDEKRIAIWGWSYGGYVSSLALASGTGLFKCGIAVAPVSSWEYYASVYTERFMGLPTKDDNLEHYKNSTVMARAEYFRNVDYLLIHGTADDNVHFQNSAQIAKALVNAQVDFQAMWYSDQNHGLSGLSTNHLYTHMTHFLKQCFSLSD
Description: In vitro FAP inhibition assay (GP-AMC substrate). Type of series: biochemical. The protocol:
as §1

The subject of the next series is Sprague-Dawley (SD) rats. Particulars: rat, in vivo, 300 mg/kg.
Another series deals with DPP IV (Homo sapiens, UniProt P27487). Description: In vitro DPP IV inhibition assay (IC50, GP-AMC substrate). Type of series: biochemical. The note with it: potency ratio versus oxy-analog compound 11. The protocol: (§2) FIG. 6 depicts a table outlining various in vitro and in vivo assay results for DPP inhibitors. CLogP values were calculated using ChemDraw Ultra version 11.0. […] All except PREP used the same substrate (GP-AMC), but different concentrations (10 μM for DPP IV, 25 μM for DPP8 and DPP9, and 50 μM for FAP).
(§3) The methods of biological testing used are described in International Patent Application PCT/US06/047853, published as WO/2007/100374, which claims priority to U.S. Provisional Patent Application No. 60/752,017. These methods are herein incorporated in their entirety by reference.
(§4) FIGS. 6-9 depict the results from various biological assays. The CLogP values in these figures were calculated using ChemDraw Ultra version 11.0.

For another series, the target named is DPP8 (Homo sapiens, UniProt Q6V1X1). Briefly: In vitro DPP8 inhibition assay (IC50, GP-AMC substrate). The class given is biochemical. The note with it: DPP IV versus DPP8. The protocol:
as §2, §3, §4

Series [2] deals with T1, DPP9. Briefly: In vitro DPP9 inhibition assay (IC50, GP-AMC substrate). The class given is biochemical. Particulars: DPP IV versus DPP9. The procedure:
as §2, §3, §4

T1 sequence (Q86TI2 whole entry, species assumed): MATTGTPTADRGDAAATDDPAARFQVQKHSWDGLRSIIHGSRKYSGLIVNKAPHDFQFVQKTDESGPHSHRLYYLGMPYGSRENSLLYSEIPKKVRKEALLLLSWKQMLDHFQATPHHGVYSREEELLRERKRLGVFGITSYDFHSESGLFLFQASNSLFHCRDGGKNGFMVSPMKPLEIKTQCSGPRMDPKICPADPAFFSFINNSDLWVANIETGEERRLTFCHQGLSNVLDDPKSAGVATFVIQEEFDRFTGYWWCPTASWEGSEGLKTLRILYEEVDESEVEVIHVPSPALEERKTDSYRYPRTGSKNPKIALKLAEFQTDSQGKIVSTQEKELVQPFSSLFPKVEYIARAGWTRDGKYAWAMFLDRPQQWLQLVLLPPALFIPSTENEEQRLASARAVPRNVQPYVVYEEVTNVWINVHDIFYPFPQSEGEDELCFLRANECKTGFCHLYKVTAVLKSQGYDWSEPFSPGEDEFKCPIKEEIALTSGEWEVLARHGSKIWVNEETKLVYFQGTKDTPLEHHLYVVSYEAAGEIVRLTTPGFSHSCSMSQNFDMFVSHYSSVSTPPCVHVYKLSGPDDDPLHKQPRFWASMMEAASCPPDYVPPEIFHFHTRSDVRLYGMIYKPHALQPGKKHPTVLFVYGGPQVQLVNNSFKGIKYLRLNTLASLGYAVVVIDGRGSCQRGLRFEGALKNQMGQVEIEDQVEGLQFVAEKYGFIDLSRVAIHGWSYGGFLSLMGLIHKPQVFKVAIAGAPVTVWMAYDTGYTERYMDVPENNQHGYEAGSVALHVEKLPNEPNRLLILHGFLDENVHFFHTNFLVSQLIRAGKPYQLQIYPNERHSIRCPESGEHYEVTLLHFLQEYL
Sequence of DPP8 (Q6V1X1 whole entry, species assumed): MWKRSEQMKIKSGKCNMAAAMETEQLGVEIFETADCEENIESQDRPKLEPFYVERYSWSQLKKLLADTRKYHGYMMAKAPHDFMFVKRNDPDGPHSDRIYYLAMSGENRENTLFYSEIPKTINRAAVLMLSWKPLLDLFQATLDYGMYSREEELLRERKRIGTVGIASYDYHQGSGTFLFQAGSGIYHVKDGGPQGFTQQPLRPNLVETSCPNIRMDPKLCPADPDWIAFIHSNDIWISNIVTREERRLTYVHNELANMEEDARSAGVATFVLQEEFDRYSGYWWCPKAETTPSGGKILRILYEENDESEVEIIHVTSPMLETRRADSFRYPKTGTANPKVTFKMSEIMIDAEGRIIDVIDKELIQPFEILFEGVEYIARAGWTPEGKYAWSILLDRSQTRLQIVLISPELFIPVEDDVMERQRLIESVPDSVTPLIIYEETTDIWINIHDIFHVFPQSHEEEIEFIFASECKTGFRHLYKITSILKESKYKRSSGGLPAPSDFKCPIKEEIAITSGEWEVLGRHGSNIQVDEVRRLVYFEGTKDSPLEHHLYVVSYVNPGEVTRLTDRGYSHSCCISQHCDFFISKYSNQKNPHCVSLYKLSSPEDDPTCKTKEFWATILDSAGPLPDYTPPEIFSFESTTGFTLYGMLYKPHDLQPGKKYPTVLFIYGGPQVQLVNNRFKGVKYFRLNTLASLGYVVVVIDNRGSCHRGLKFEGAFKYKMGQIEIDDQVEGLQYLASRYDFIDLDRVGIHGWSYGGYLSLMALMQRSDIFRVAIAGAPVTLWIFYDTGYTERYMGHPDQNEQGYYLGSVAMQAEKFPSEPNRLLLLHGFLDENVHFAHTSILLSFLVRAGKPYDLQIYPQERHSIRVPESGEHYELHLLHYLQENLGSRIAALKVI
Sequence of DPP IV (P27487 whole entry, species assumed): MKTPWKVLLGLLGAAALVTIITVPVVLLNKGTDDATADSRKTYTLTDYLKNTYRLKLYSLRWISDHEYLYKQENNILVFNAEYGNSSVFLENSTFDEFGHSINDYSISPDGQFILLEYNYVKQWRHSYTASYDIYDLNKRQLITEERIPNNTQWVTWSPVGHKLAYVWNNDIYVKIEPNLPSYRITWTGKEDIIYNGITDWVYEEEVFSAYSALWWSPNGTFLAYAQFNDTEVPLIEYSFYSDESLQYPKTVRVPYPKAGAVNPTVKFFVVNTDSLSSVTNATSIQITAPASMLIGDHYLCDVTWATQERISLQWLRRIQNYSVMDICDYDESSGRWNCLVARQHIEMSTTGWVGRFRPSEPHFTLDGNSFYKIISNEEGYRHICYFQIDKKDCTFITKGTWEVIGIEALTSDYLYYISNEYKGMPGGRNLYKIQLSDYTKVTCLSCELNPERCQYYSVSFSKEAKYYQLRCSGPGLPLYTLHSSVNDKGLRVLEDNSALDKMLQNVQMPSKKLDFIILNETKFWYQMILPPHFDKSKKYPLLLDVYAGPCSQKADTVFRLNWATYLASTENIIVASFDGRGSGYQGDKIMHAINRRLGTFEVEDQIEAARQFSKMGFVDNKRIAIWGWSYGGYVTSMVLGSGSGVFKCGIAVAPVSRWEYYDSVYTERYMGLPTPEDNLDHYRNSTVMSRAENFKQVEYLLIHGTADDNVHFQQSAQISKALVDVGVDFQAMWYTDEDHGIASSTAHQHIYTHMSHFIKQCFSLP
Description for Sprague-Dawley (SD) rats: In an experiment, 13 male SD rats were given 300 mg/kg of compound 5.

For the molecule `CN(CB(O)O)C(=S)[C@@H](N)CCC(=O)O.Cl` [Compound 5, Glu-boroSar[thioxo amide]hydrochloride], on DPP9 [1], the half-maximal inhibitory concentration (IC50) is 828 µM. The “selectivity against PREP in vitro” value on PREP is on record as “good selectivity”. For the same molecule, the “selectivity against FAP in vitro” value at FAP is given as “good selectivity”. Also, the “signs of toxicity after 24 h” value with Sprague-Dawley (SD) rats is “no sign of toxicity”. The “more potent inhibitor of DPP IV than compound 11” value at DPP IV is given as “about 66 fold”. Moreover, the “more potent for DPP IV than for DPP8 (selectivity)” value at DPP8 is recorded as 13,000 ×. The “more potent for DPP IV than for DPP9 (selectivity)” value on DPP9 [2] is 6,000 ×.

A word on the IC50: it is the concentration at which inhibition is half-maximal. A lower IC50 goes with greater potency in that assay.
